Test results as given in ChEMBL document CHEMBL3217414, “Trifluoromethyl derivatives of canonical nucleosides: synthesis and bioactivity studies” (Medchemcomm, 2013).

Columns and labels:
Hepatitis B virus = assay: Antiviral activity against Hepatitis B virus; type: functional, organism-based
C6 = assay: Cytotoxicity against rat C6 cells assessed as inhibition of cell viability after 48 hrs by MTT assay; type: functional, cell-based; details: for IC50: C6, 48 h
MCF7 = assay: Cytotoxicity against human MCF7 cells assessed as inhibition of cell viability after 48 hrs by MTT assay; type: functional, cell-based; details: for IC50: MCF7, 48 h
HaCaT = assay: Cytotoxicity against human HaCaT cells assessed as inhibition of cell viability after 48 hrs by MTT assay; type: cell-based; details: for IC50: Homo sapiens, HaCaT
L6 = assay: Cytotoxicity against rat L6 cells assessed as inhibition of cell viability after 48 hrs by MTT assay; type: cell-based; details: for IC50: Rattus norvegicus, L6, 48 h
DU-145 = assay: Cytotoxicity against human DU145 cells assessed as inhibition of cell viability after 48 hrs by MTT assay; type: functional, cell-based; details: for IC50: DU-145, 48 h

Row | SMILES | IC50 (Hepatitis B virus) | inhibition (C6) | IC50 (C6) | inhibition (MCF7) | IC50 (MCF7) | IC50 (HaCaT) | inhibition (INH) (HaCaT; human, hacat) | IC50 (L6) | inhibition (INH) (L6; rat, l6, 48 h) | inhibition (DU-145) | IC50 (DU-145)
1 | Nc1ccn([C@H]2C=C(C(F)(F)F)[C@@H](CO)O2)c(=O)n1 | 10 µM | – | – | – | – | – | – | – | – | – | –
2 | Nc1nc2c(nc(C(F)(F)F)n2[C@H]2C[C@H](O)[C@@H](CO)O2)c(=O)[nH]1 | – | Dose-dependent effect | 92 µM | Dose-dependent effect | 76 µM | 210 µM | Dose-dependent effect | 234 µM | Dose-dependent effect | Dose-dependent effect | 72 µM
3 | Nc1nc(=O)n([C@H]2C[C@H](O)[C@@H](CO)O2)cc1C(F)(F)F | – | – | 44 µM | – | 32 µM | 140 µM | – | 155 µM | – | – | 25 µM
4 | Nc1nc(O)c2ncn([C@H]3C[C@H](O)[C@@H](CO)O3)c2n1 [DEOXYGUANOSINE] | – | – | > 250 µM | – | > 250 µM | > 250 µM | – | > 250 µM | – | – | > 250 µM
5 | Nc1ncnc2c1nc(C(F)(F)F)n2[C@H]1C[C@H](O)[C@@H](CO)O1 | – | – | 81 µM | – | 65 µM | 214 µM | – | 225 µM | – | – | 50 µM
6 | Nc1ccn([C@H]2C[C@H](O)[C@@H](CO)O2)c(=O)n1 [DOXECITINE] | – | – | > 250 µM | – | > 250 µM | > 250 µM | – | > 250 µM | – | – | > 250 µM
7 | O=c1[nH]cnc2c1nc(C(F)(F)F)n2[C@@H]1O[C@H](CO)[C@@H](O)[C@H]1O | – | – | 142 µM | – | 105 µM | 170 µM | – | 195 µM | – | – | 131 µM
8 | O=c1[nH]cnc2c1ncn2[C@@H]1O[C@H](CO)[C@@H](O)[C@H]1O [INOSINE] | – | – | > 250 µM | – | > 250 µM | > 250 µM | – | > 250 µM | – | – | > 250 µM
9 | Nc1ncnc2c1ncn2[C@H]1C=C(C(F)(F)F)[C@@H](CO)O1 | 5 µM | – | – | – | – | – | – | – | – | – | –
10 | Nc1ncnc2c1ncn2[C@H]1C[C@H](O)[C@@H](CO)O1 [DEOXYADENOSINE] | – | – | > 250 µM | – | > 250 µM | > 250 µM | – | > 250 µM | – | – | > 250 µM
